Measured values as given in PMC8847695 (Frontiers in Chemistry, 2022).

Assays:
Assay type in all cases: binding
Conditions in all cases: 1 = hit, 0 = no hit
AAK1 (121-471) = AAK1 (121-471) (Homo sapiens, UniProt Q2M2I8); assay: STD-NMR fragment screening, AAK1
Method in brief: (§1)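 Saturation-transfer difference NMR was run at 25°C and 700 MHz with 20 µM protein, two fragments at 1 mM each, and 10% DMSO-d6. On-resonance saturation was at 0.5–0.6 ppm and off-resonance at 40 ppm, with a 3 s Gaussian-pulse train. A hit required a difference-spectrum peak at least three times the local noise.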

CAMK1G (1-320) = biological target: T1, CAMK1G (1-320) (Homo sapiens, UniProt Q96NX5); assay: STD-NMR fragment screening, CAMK1G
T1 construct: made in house; host or cells: E. coli BL21 (DE3) pLysS
T1 sequence (Q96NX5 1-320): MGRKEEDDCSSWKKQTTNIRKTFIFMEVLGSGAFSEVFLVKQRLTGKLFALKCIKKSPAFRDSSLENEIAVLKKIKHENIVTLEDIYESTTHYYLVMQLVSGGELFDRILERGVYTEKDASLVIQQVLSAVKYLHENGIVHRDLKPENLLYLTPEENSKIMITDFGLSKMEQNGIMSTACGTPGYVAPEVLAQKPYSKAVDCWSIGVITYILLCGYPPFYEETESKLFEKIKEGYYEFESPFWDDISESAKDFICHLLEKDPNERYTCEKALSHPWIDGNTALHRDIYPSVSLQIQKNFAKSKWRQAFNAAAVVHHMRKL
Method in brief: as §1

IDO1 (1-435) = biological target: T2, IDO1 (1-435) (Homo sapiens, UniProt P14902); assay: STD-NMR fragment screening, IDO1
T2 construct: His-tag of pET15b with TEV site (thrombin site replaced) (cleaved yes); made in house; host or cells: E. coli Rosetta 2 (DE3) pLysS
T2 sequence (P14902 whole entry, the tested form may be a part): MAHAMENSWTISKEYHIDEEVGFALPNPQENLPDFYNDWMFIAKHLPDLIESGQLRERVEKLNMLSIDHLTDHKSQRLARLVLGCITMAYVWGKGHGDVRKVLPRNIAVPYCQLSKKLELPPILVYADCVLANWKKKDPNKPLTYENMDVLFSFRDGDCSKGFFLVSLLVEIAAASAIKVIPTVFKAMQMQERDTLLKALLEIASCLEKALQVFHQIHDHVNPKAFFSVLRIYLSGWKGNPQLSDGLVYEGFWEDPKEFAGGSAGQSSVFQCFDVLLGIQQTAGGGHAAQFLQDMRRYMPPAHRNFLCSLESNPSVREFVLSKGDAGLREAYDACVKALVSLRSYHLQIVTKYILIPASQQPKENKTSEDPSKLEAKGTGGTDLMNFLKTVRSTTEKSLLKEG
Method in brief: as §1

DOT1L (1-416) = biological target: T3, DOT1L (1-416) (Homo sapiens, UniProt Q8TEK3); assay: STD-NMR fragment screening, DOT1L
T3 construct: made in house; host or cells: E. coli BL21 (DE3) pLysS
T3 sequence (Q8TEK3 1-416): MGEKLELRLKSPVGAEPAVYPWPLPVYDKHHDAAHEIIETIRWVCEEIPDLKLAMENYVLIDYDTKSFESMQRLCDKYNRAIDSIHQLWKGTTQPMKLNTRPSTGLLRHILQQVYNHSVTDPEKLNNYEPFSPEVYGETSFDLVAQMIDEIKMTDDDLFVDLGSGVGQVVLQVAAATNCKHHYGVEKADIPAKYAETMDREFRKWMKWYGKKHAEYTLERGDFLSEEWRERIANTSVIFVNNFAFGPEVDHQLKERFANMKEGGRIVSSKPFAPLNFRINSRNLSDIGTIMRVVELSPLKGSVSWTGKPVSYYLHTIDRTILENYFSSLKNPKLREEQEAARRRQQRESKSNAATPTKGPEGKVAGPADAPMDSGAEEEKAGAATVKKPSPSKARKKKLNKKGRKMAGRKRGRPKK
Method in brief: as §1

AAK1 (121-471), sequence (Q2M2I8 46-315 limits assumed): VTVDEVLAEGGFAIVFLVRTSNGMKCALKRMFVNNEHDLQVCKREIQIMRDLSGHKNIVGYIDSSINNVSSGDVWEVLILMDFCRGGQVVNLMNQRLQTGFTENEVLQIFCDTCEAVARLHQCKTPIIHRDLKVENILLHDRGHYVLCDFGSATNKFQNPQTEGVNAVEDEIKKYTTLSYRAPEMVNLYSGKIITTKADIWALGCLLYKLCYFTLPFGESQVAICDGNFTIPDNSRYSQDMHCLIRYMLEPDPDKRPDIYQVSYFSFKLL

AAK1 (STD-NMR hit flag) (AAK1 (121-471)) | CAMK1G (STD-NMR hit flag) (CAMK1G (1-320)) | IDO1 (STD-NMR hit flag) (IDO1 (1-435)) | DOT1L (STD-NMR hit flag) (DOT1L (1-416)) | SMILES
0 | 0 | 0 | 0 | [O-][n+]1ccc(Cl)cc1 [Fragment B02297421]
0 | 0 | 0 | 0 | O=C(O)C(O)c1ccccc1Cl (stereo not shown) [Fragment B02291247]
0 | 0 | 0 | 0 | CC(=O)Nc1ccc(Cl)c(C(=O)O)n1 [Fragment B02297416]
0 | 0 | 0 | 0 | Clc1cnc(Cl)nc1 [Fragment B02291267]
0 | 0 | 0 | 0 | Fc1ncccc1I [Fragment B02291262]
0 | 0 | 0 | 0 | O=C(O)c1ccc(Br)cn1 [Fragment B02291245]
0 | 0 | 0 | 0 | O=C(O)Cc1ccc(Cl)nc1 [Fragment B02291249]
0 | 0 | 1 | 0 | O=c1ncc(Cl)c[nH]1 [Fragment B02297425]
1 | 0 | 0 | 0 | Cc1cnc(C)c(Cl)n1 [Fragment B02297402]
0 | 0 | 0 | 0 | Cc1ccc(C(=O)O)c(Cl)n1 [Fragment B02297428]
1 | 0 | 0 | 0 | OC1CCN(c2cc(Cl)ncn2)CC1 [Fragment B02297410]
1 | 1 | 1 | 0 | Clc1ncnc2[nH]ccc12 [Fragment B02291254]
1 | 0 | 0 | 1 | O=C(O)c1cncc(Br)c1 [Fragment B02291261]

The remaining lines, values behind:

SMILES | AAK1 (STD-NMR hit flag) (AAK1 (121-471)) | CAMK1G (STD-NMR hit flag) (CAMK1G (1-320)) | IDO1 (STD-NMR hit flag) (IDO1 (1-435)) | DOT1L (STD-NMR hit flag) (DOT1L (1-416))
Brc1cnc2cnccn12 [Fragment B02289617] | 0 | 1 | 0 | 0
O=c1[nH]c2ccc(Cl)nc2[nH]1 [Fragment B02290474] | 1 | 0 | 0 | 0
NC1CCSc2ccc(Cl)cc21 (stereo not shown) [Fragment B02291226] | 0 | 0 | 0 | 0
Cc1c(Cl)c([N+](=O)[O-])nn1CC(=O)O [Fragment B02290123] | 0 | 0 | 1 | 0
CC(Cn1cc(Cl)cn1)C(=O)O (stereo not shown) [Fragment B02290481] | 0 | 0 | 0 | 0
COc1ccc(CN)c(Cl)c1 [Fragment B02290088] | 0 | 0 | 0 | 0
Nc1c(Cl)ccc(O)c1Cl [Fragment B02290471] | 1 | 0 | 0 | 0
Nc1ncc(F)cc1I [Fragment B02291238] | 0 | 0 | 0 | 0
Nc1c(Cl)ncnc1NC1CC1 [Fragment B02291230] | 1 | 1 | 0 | 0
Cc1n[nH]c(C)c1I [Fragment B02290459] | 1 | 1 | 1 | 1
N#Cc1n[nH]cc1Br [Fragment B02290464] | 1 | 1 | 1 | 0
Cc1onc(N)c1I [Fragment B02290521] | 1 | 1 | 1 | 0
Nc1cc(Cl)cc([N+](=O)[O-])c1O [Fragment B02291244] | 0 | 0 | 0 | 0
Brc1nnc2n1CCNC2 [Fragment B02290462] | 0 | 0 | 0 | 0
Cn1c(=O)cc(Cl)[nH]c1=O [Fragment B02290524] | 0 | 0 | 0 | 0
O=S(=O)(c1ccc(Cl)s1)N1CCNCC1 [Fragment B02291236] | 0 | 0 | 0 | 0
Brc1cnc(N2CCCNCC2)nc1 [Fragment B02290087] | 0 | 1 | 0 | 0
O=C(O)CCc1nc(Br)n[nH]1 [Fragment B02290119] | 0 | 0 | 0 | 0
CCOC(=O)c1coc(Cl)n1 [Fragment B02289613] | 0 | 0 | 0 | 0
O=C(O)c1cncc(Cl)c1 [Fragment B02289604] | 1 | 0 | 0 | 0
CCn1ncc(Br)c1C(N)=O [Fragment B02291150] | 1 | 1 | 0 | 0
COc1ccc(I)cc1CNCCO [Fragment B02290112] | 0 | 0 | 0 | 0
OCc1cc2c(cc1Cl)OCO2 [Fragment B02291235] | 0 | 1 | 0 | 0
O=C(c1ccc(Br)cc1)C12CN3CN(CN(C3)C1)C2 [Fragment B02290401] | 0 | 0 | 0 | 0
